Results published in US20240425497A1, “Cbl-b Inhibitors and Methods of Use Thereof” (ARCUS BIOSCIENCES, INC., priority 2023, published 2024).

Experiments:
Cbl-b = Cbl-b (Homo sapiens (Human), UniProt Q13191); experiment: Cbl-b probe displacement HTRF binding assay; conditions: 0.4 nM biotinylated Cbl-b, 150 nM BODIPY probe
Procedure, shortened: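 Biotinylated Cbl-b (0.4 nM final) was preincubated 60 min at room temperature with compound (20-point 1:2 series, top 10 μM final), then BODIPY probe (150 nM final) was added for 15 min before streptavidin-terbium cryptate. Buffer was 20 mM Hepes, 150 mM NaCl, 0.01% Triton X-100, 0.5 mM TCEP, 0.01% BSA; IC50 was derived from a four-parameter fit of HTRF signal loss.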

Jurkat cells = experiment: IL-2 secretion assay in CD3/CD28-activated Jurkat cells (AlphaLISA); type: cell-based, human; conditions: Homo sapiens, CD3/CD28 activation, 24 h
Procedure, shortened: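 Jurkat cells in Opti-MEM (50,000/well) preincubated 1 h at 37° C with compound (16-point 1:2 dilution, final 10 μM to […]), then activated with CD3/CD28 T cell activator for 24 h at 37° C. Secreted IL-2 in supernatant quantified by AlphaLISA; EC50 from 4-parameter logistic fit.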

Cbl-b, sequence (Q13191 whole entry, species assumed): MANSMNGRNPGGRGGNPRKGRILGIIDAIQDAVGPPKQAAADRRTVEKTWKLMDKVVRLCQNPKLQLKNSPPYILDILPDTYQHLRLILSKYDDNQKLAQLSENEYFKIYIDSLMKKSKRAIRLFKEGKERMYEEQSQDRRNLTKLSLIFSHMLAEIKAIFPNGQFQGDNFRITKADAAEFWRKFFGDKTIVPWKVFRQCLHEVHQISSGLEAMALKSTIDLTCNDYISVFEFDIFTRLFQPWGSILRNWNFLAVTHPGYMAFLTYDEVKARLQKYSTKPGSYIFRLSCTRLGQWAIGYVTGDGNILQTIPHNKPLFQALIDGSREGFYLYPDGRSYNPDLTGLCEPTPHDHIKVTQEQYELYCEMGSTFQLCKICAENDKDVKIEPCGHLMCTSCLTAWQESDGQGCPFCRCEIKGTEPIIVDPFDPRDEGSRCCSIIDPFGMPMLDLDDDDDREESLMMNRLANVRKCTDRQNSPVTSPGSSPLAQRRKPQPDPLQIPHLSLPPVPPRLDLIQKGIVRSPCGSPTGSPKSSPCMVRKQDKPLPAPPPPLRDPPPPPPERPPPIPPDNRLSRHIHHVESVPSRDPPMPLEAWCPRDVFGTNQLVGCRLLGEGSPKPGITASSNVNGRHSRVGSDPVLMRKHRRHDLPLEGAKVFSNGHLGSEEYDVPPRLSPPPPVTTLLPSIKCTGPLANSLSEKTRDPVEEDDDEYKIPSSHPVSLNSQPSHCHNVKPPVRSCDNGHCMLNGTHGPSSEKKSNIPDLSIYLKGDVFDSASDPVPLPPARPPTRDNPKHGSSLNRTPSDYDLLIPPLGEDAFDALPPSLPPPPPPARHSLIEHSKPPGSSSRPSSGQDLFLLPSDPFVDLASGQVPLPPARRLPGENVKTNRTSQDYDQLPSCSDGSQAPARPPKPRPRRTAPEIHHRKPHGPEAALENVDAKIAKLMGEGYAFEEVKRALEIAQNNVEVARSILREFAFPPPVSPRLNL

| SMILES | IC50 (Cbl-b) [nM] | EC50 (Jurkat cells) [nM] |
| --- | --- | --- |
| O=C(c1cc(F)ccc1-c1cc(C2CC2)nc(-n2cc(C(F)(F)F)c3cc(CO)[nH]c3c2=O)c1)C1CC(F)C1 (stereo not drawn) [Example 52, 6-[6-cyclopropyl-4-[4-fluoro-2-(3-fluorocyclobutanecarbonyl)phenyl]pyridin-2-yl]-2-(hydroxymethyl)-4-(trifluoromethyl)-1H-pyrrolo[2,3-c]pyridin-7-one] | < 100 | 100 to 1000 |
| N#Cc1c(CO)[nH]c2c(=O)n(-c3cc(-c4ccc(F)cc4C(=O)C4CC(F)C4)cc(C4CC4)n3)cc(C(F)(F)F)c12 (stereo not drawn) [Example 53, 6-[6-cyclopropyl-4-[4-fluoro-2-(3-fluorocyclobutanecarbonyl)phenyl]pyridin-2-yl]-2-(hydroxymethyl)-7-oxo-4-(trifluoromethyl)-1H-pyrrolo[2,3-c]pyridine-3-carbonitrile] | < 100 | 100 to 1000 |
| N#Cc1cn(-c2cc(-c3ccc(F)cc3C(=O)N3CC(F)C3)cc(C3CC3)n2)c(=O)c2[nH]c(CO)cc12 [Example 54, 6-(6-cyclopropyl-4-{4-fluoro-2-[(3-fluoro-1-azetidinyl)carbonyl]phenyl}-2-pyridyl)-2-(hydroxymethyl)-7-oxo-1,6-dihydro-1,6-diaza-4-indenecarbonitrile] | < 100 | 100 to 1000 |
